Target: T1, human β3-AR (Homo sapiens, UniProt P13945)
T1 construct: expressed in transfected cells; host or cells: CHO (Chinese hamster ovary) cells, stably transfected
Assay: cAMP functional agonist assay (LANCE TR-FRET) in CHO cells expressing cloned human β3-AR
Format: cell-based
Details: for EC50: CHO cells stably expressing cloned human β3-adrenoceptor, cAMP release, read-out: Human β3-AR Agonism EC50; for Fold drop in potency vs. 2-chloropyridine analog: EC50 of comparative example divided by EC50 of corresponding 2-chloropyridine compound; for Human β3-AR Agonist Activity (%): percent maximum activation relative to isoproterenol
Procedure: The ability of compounds to activate the human β3-AR receptor was measured using a CHO cell line stably expressing the cloned human β1-, β2-, and β3-adrenoceptors (β-AR). […] To quantify the amount of cAMP released following β-AR activation, the LANCE cAMP kit (Perking Elmer), a time-resolved fluorescence resonance energy transfer immunoassay, was used. Compounds were serially diluted in DMSO and an aliquot added to either 384-well or 96-well micro titer plates in assay buffer (5 mM HEPES, 0.1% BSA in Hank's Balanced Salt Solution). […] Following 30 min incubation at room temperature, the cells were lysed by the addition of LANCE detection buffer which contained a europium-labeled cAMP tracer. Fluorescence was measured following one hour incubation at room temperature using a Perking Elmer Envision plate reader, exciting at 340 nm and measuring emission at 615 nm and 665 nm. For each assay, a cAMP standard curve was included and used to convert fluorescence readings directly to cAMP amounts. The values were then normalized to isoproterenol, a known full agonist of β-AR, which was titrated in every assay and the EC50 determined using a custom in-house data analysis package. Along with EC50, the percent maximum activation relative to isoproterenol is reported.
The cAMP production is measured using a homogenous time-resolved fluorescence resonance energy transfer immunoassay (LANCE™, Perkin Elmer) according to the manufacture's instructions. Chinese hamster ovary (CHO) cells, stably transfected with the cloned β-adrenergic receptor (β1, β2 or β3) are harvested after 3 days of subculturing. Harvesting of cells is done with Enzyme-free Dissociation Media (Specialty Media). Cells are then counted and resuspended in assay buffer (Hank's Balanced salt solution supplemented with 5 mM HEPES, […]) containing a phosphodiesterase inhibitor (IBMX, 0.6 mM). The reaction is initiated by mixing 6,000 cells in 6 μL with 6 μL Alexa Fluor labeled cAMP antibody (LANCE™ kit) which is then added to an assay well containing 12 μL of compound (diluted in assay buffer to 2× final concentration). The reaction proceeds for 30 minutes at RT and is terminated by the addition of 24 ul detection buffer (LANCE™ kit). The assay plate is then incubated for 1 h at RT and time-resolved fluorescence measured on a Perkin Elmer Envision reader or equivalent. The unknown cAMP level is determined by comparing fluorescence levels to a cAMP standard curve.
The non-selective, full agonist β-adrenergic ligand isoproterenol is used at all three receptors to determine maximal stimulation. […] Data are analyzed using Microsoft Excel and Graphpad Prism or an internally developed data analysis software package. […]

T1 sequence (P13945 whole entry): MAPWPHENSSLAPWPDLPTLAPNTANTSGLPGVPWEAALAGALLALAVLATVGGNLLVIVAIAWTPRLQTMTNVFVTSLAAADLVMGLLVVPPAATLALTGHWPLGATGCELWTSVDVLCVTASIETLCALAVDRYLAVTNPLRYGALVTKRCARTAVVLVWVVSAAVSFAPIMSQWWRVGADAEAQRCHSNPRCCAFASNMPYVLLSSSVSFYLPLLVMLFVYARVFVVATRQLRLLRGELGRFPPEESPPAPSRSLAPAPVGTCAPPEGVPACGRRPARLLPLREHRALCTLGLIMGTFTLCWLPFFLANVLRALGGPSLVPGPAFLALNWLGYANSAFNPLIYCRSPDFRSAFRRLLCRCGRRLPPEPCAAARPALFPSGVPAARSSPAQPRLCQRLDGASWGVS

Structure (SMILES) | EC50 [nM] | Fold drop in potency vs. 2-chloropyridine analog [fold] | Human β3-AR Agonist Activity (%)
CC(C)c1cc(CN(C)C(=O)c2ccc(C[C@@H]3CC[C@H]([C@H](O)c4ccccc4)N3)cc2)n[nH]1 [Example 7-B, 4-(((2S,5R)-5-((R)-hydroxy(phenyl)methyl)pyrrolidin-2-yl)methyl)-N-((5-isopropyl-1H-pyrazol-3-yl)methyl)-N-methylbenzamide] | 188 | 3.2 | 110
CN(C(=O)c1ccc(C[C@@H]2CC[C@H]([C@H](O)c3ccc(Cl)nc3)N2)cc1)C1CCc2ncccc21 (stereo partly drawn) [Example 24-A, 4-(((2S,5R)-5-((R)-(6-chloropyridin-3-yl)(hydroxy)methyl)pyrrolidin-2-yl)methyl)-N-(6,7-dihydro-5H-cyclopenta[b]pyridin-5-yl)-N-methylbenzamide] | 42 |  | 98
Cc1cc(C(Cc2ccccc2)N(C)C(=O)c2ccc(C[C@@H]3CC[C@H]([C@H](O)c4cccnc4)N3)cc2)[nH]n1 (stereo partly drawn) [Example 6-H, 4-(((2S,5R)-5-((R)-hydroxy(pyridin-3-yl)methyl)pyrrolidin-2-yl)methyl)-N-methyl-N-(1-(5-methyl-1H-pyrazol-3-yl)-2-phenylethyl)benzamide] | 7 | 2.4 | 92
CN(Cc1cncc(C(=O)O)c1)C(=O)c1ccc(C[C@@H]2CC[C@H]([C@H](O)c3ccc(Cl)cc3)N2)cc1 [Example 33-G, 5-((4-(((2S,5R)-5-((R)-(4-chlorophenyl)(hydroxy)methyl)pyrrolidin-2-yl)methyl)-N-methylbenzamido)methyl)nicotinic acid] | 63 | 1.4 | 102
CN(Cc1cncc(-c2nnn[nH]2)c1)C(=O)c1ccc(C[C@@H]2CC[C@H]([C@H](O)c3ccc(Cl)nc3)N2)cc1 [Example 37-A, N-((5-(1H-tetrazol-5-yl)pyridin-3-yl)methyl)-4-(((2S,5R)-5-((R)-(6-chloropyridin-3-yl)(hydroxy)methyl)pyrrolidin-2-yl)methyl)-N-methylbenzamide] | 27 |  | 94
CN(Cc1cncc(C#N)c1)C(=O)c1ccc(C[C@@H]2CC[C@H]([C@H](O)c3ccccc3)N2)cc1 [Example 35-B, N-((5-cyanopyridin-3-yl)methyl)-4-(((2S,5R)-5-((R)-hydroxy(phenyl)methyl)pyrrolidin-2-yl)methyl)-N-methylbenzamide] | 62 | 3.6 | 102
Cc1[nH]nc(CN(C)C(=O)c2ccc(C[C@@H]3CC[C@H]([C@H](O)c4ccc(Cl)nc4)N3)cc2)c1O [Example 15-A, 4-(((2S,5R)-5-((R)-(6-chloropyridin-3-yl)(hydroxy)methyl)pyrrolidin-2-yl)methyl)-N-((4-hydroxy-5-methyl-1H-pyrazol-3-yl)methyl)-N-methylbenzamide] | 1 |  | 94
CN(Cc1ccnnc1)C(=O)c1ccc(C[C@@H]2CC[C@H]([C@H](O)c3ccccc3)N2)cc1 [Example 42-B, 4-(((2S,5R)-5-((R)-hydroxy(phenyl)methyl)pyrrolidin-2-yl)methyl)-N-methyl-N-(pyridazin-4-ylmethyl)benzamide] | 55 | 16.1 | 111
Cc1nc(-c2ccc([C@@H](O)[C@H]3CC[C@@H](Cc4ccc(C(=O)N(C)Cc5cccnc5)cc4)N3)cn2)no1 [Example 21-L, 4-(((2S,5R)-5-((R)-hydroxy(6-(5-methyl-1,2,4-oxadiazol-3-yl)pyridin-3-yl)methyl)pyrrolidin-2-yl)methyl)-N-methyl-N-(pyridin-3-ylmethyl)benzamide] | ≥ 10000 | >2300 | 3
CN(Cc1cnccn1)C(=O)c1ccc(C[C@@H]2CC[C@H]([C@H](O)c3cccc(Cl)c3)N2)cc1 [Example 40-D, 4-(((2S,5R)-5-((R)-(3-chlorophenyl)(hydroxy)methyl)pyrrolidin-2-yl)methyl)-N-methyl-N-(pyrazin-2-ylmethyl)benzamide] | 567 | 48.6 | 86
CC(C)[C@H](c1nn(C)c(=O)o1)N(C)C(=O)c1ccc(C[C@@H]2CC[C@H]([C@H](O)c3ccccc3)N2)cc1 [Example 19-B, 4-(((2S,5R)-5-((R)-hydroxy(phenyl)methyl)pyrrolidin-2-yl)methyl)-N-methyl-N—((R)-2-methyl-1-(4-methyl-5-oxo-4,5-dihydro-1,3,4-oxadiazol-2-yl)propyl)benzamide] | 32 | 5.8 | 115
CN(Cc1cncc(-c2nn[nH]n2)c1)C(=O)c1ccc(C[C@@H]2CC[C@H]([C@H](O)c3ccccc3)N2)cc1 [Example 37-B, N-((5-(1H-tetrazol-5-yl)pyridin-3-yl)methyl)-4-(((2S,5R)-5-((R)-hydroxy(phenyl)methyl)pyrrolidin-2-yl)methyl)-N-methylbenzamide] | 63 | 2.4 | 101
CN(C(=O)c1ccc(C[C@@H]2CC[C@H]([C@H](O)c3ccccc3)N2)cc1)C1CCc2ncccc21 (stereo partly drawn) [Example 24-B, N-(6,7-dihydro-5H-cyclopenta[b]pyridin-5-yl)-4-(((2S,5R)-5-((R)-hydroxy(phenyl)methyl)pyrrolidin-2-yl)methyl)-N-methylbenzamide] | 229 | 5.4 | 106
CCC(c1cc(C)n[nH]1)N(C)C(=O)c1ccc(C[C@@H]2CC[C@H]([C@H](O)c3ccc(Cl)nc3)N2)cc1 (stereo partly drawn) [Example 5-A, 4-(((2S,5R)-5-((R)-(6-chloropyridin-3-yl)(hydroxy)methyl)pyrrolidin-2-yl)methyl)-N-methyl-N-(1-(5-methyl-1H-pyrazol-3-yl)propyl)benzamide] | 2 |  | 102
CCOc1cc(CN(C)C(=O)c2ccc(C[C@@H]3CC[C@H]([C@H](O)c4ccccc4)N3)cc2)n[nH]1 [Example 11-B, N-((5-ethoxy-1H-pyrazol-3-yl)methyl)-4-(((2S,5R)-5-((R)-hydroxy(phenyl)methyl)pyrrolidin-2-yl)methyl)-N-methylbenzamide] | 26 | 4.0 | 116
CCc1[nH]nc(CN(C)C(=O)c2ccc(C[C@@H]3CC[C@H]([C@H](O)c4ccc(Cl)nc4)N3)cc2)c1C [Example 12-A, 4-(((2S,5R)-5-((R)-(6-chloropyridin-3-yl)(hydroxy)methyl)pyrrolidin-2-yl)methyl)-N-((5-ethyl-4-methyl-1H-pyrazol-3-yl)methyl)-N-methylbenzamide] | 13 |  | 95
CC(C)[C@H](c1nn(C)c(=O)o1)N(C)C(=O)c1ccc(C[C@@H]2CC[C@H]([C@H](O)c3ccc(Cl)nc3)N2)cc1 [Example 19-A, 4-(((2S,5R)-5-((R)-(6-chloropyridin-3-yl)(hydroxy)methyl)pyrrolidin-2-yl)methyl)-N-methyl-N—((R)-2-methyl-1-(4-methyl-5-oxo-4,5-dihydro-1,3,4-oxadiazol-2-yl)propyl) benzamide] | 5 |  | 111
CN(Cc1cccnc1F)C(=O)c1ccc(C[C@@H]2CC[C@H]([C@H](O)c3cccnc3)N2)cc1 [Example 26-H, N-((2-fluoropyridin-3-yl)methyl)-4-(((2S,5R)-5-((R)-hydroxy(pyridin-3-yl)methyl)pyrrolidin-2-yl)methyl)-N-methylbenzamide] | 397 | 11.3 | 96
Cc1cc(CN(C)C(=O)c2ccc(C[C@@H]3CC[C@H]([C@H](O)c4ccc(OC(F)F)cc4)N3)cc2)n[nH]1 [Example 4-E, 4-(((2S,5R)-5-((R)-(4-(difluoromethoxy)phenyl)(hydroxy)methyl)pyrrolidin-2-yl)methyl)-N-methyl-N-((5-methyl-1H-pyrazol-3-yl)methyl)benzamide] | 90 | 16.4 | 79

Source: patent US20160235727A1, “NOVEL PYRROLIDINE DERIVED BETA 3 ADRENERGIC RECEPTOR AGONISTS” (Merck Sharp & Dohme Corp., priority 2013, published 2016)
